These results are taken from US7803816B2, “MCH receptor antagonists” (Hoffmann-La Roche Inc., priority 2005, dated 2010).

One may read the IC50 as the concentration that gives 50% inhibition.

This assay addresses T1, recombinant human MCHR1-receptors (Homo sapiens, UniProt Q99705).
T1 construct: expressed in transfected cells
Description: MCHR filter binding assay (competition binding). The conditions noted are these: membranes from CHO-K1 cells expressing human MCHR1, 0.2 nM [Phe13,[125I]Tyr19]-MCH. How it is done: MCHR Filter Binding Assay
Competition binding assays were performed using membranes from CHO-K1 cells stably expressing the recombinant human MCHR1-receptors. Binding reactions (90 μl, final volume) were carried out at rt by incubating 2.8 μg membranes with 0.2 nM [Phe^13,[^125I]Tyr^19]-MCH (PerkinElmer) in the absence or presence of various concentrations of competing ligands in binding buffer (50 mM HEPES, 2.5 mM CaCl2, 0.05 mM BSA, 1 mM phenanthroline, 0.03 mM Triton X-100). [Phe^13,[^125I]Tyr^19]-MCH was added 15 min following the addition of unlabeled competing ligands, and the reactions incubated for a 1 h period. The reactions were terminated by rapid filtration over pretreated 96-well filter plates (Millipore; MultiScreen 0.65 μm GFB filter plates). Filter Plates were treated for 12 h at 4° C. with a 0.5% polyvinylpyrrolidone solution containing 1% BSA and 0.1% Tween 20, and then washed with an ice-cold solution of 10 mM Tris, pH 7.5 (5×200 μl). The plates were drained following a 5 min incubation with binding buffer (200 μl) at rt. Following termination of the binding reactions, the filters were washed with ice-cold binding buffer (4×200 μl). The filter plates were air dried for 30 min, scintillation cocktail (60 μl) added to each well and radioactivity bound to the plates was determined using a Micro-beta plate reader (Wallace/PerkinElmer).

Setting [1] is: read-out: IC50 (nM), in vitro activity (binding assay).
Setting [2] is: read-out: IC50 (nM), selected in vitro MCH-R binding data.

Where a name gives a salt, the structure may show the parent alone. Read-outs that look alike come from different tables or passages of the source. Where only a bound is given, the exact number is not on record here.

T1 sequence (Q99705 whole entry): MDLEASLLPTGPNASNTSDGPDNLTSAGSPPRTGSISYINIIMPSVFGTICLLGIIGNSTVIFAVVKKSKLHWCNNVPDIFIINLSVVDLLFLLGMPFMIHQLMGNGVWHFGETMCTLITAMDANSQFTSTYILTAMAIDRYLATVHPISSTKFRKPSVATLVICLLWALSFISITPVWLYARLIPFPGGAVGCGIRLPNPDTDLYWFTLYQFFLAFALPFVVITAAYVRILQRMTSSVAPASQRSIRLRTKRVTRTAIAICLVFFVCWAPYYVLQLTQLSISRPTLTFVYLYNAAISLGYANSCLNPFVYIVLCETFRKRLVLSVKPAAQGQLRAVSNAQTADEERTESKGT

“1-((3R,4R)-1-Indan-2-ylmethyl-3-methoxy-piperidin-4-yl)-2,5-dimethyl-1H-benzoimidazole; dihydrochloride [Example 55]”: the IC50 under setting [1] is 200 to 5000 nM.

Consider `Cc1ccc2c(c1)nc(C)n2[C@@H]1CCN(C[C@@H]2Cc3ccc(NC(=O)C(C)C)cc3C2)C[C@H]1CO` (racemic) [Example 3, N-{(R)-2-[4-(2,5-Dimethyl-benzoimidazol-1-yl)-3-hydroxymethyl-piperidin-1-ylmethyl]-indan-5-yl}-isobutyramide], for which, under setting [1], the IC50 was less than 20 nM.

As for `Cc1ccc2c(c1)nc(C(C)C)n2[C@@H]1CCN(CC2Cc3ccc(NC(=O)C4CC4)cc3C2)C[C@H]1O` (stereo in doubt) [Example 2, Cyclopropanecarboxylic acid {(R)-2-[(3R,4R)-3-hydroxy-4-(2-isopropyl-5-methyl-benzoimidazol-1-yl)-piperidin-1-ylmethyl]-indan-5-yl}-amide], the IC50 under setting [1] was in the range of 20 to 200 nM.

Turning to `CCOc1nc2cc(C)ccc2n1C1CCN(CC2Cc3ccc(NC(=O)C(C)C)cc3C2)CC1` (stereo in doubt) [Example 4, N-{(S)-2-[4-(2-Ethoxy-5-methyl-benzoimidazol-1-yl)-piperidin-1-ylmethyl]-indan-5-yl}-isobutyramide], the IC50 under setting [1] lay within 20 to 200 nM.

Consider `CCC(=O)Nc1ccc2c(c1)CC(CN1CC[C@@H](n3c(C)nc4cc(C)ccc43)[C@H](O)C1)C2` (stereo in doubt) [Example 5, N-{(S)-2-[(3R,4R)-4-(2,5-Dimethyl-benzoimidazol-1-yl)-3-hydroxy-piperidin-1-ylmethyl]-indan-5-yl}-propionamide], for which the IC50 under setting [1] is 20 to 200 nM.

`CO[C@@H]1CN(CC2Cc3ccc(Br)cc3C2)CC[C@H]1n1c(C(C)(C)O)nc2cc(C)ccc21` (stereo in doubt) [Example 11, 2-{1-[(3R,4R)-1-((S)-5-Bromo-indan-2-ylmethyl)-3-methoxy-piperidin-4-yl]-5-methyl-1H-benzoimidazol-2-yl}-propan-2-ol]: the IC50 under setting [1] is less than 20 nM.

In the case of `CCC(=O)Nc1ccc2c(c1)C[C@H](CN1CCC(n3c(C(C)C)nc4cc(C)ccc43)[C@@H](OC)C1)C2` (stereo in doubt) [Example 32, N-{(R)-2-[(3S,4S)-4-(2-Isopropyl-5-methyl-benzoimidazol-1-yl)-3-methoxy-piperidin-1-ylmethyl]-indan-5-yl}-propionamide], under setting [1], the IC50 is less than 20 nM.

In the case of `CO[C@H]1CN(C[C@@H]2Cc3ccc(NC(=O)C4CC4)cc3C2)CCC1n1c(C2CC2)nc2cc(C)ccc21` (stereo in doubt) [Example 66, Cyclopropanecarboxylic acid {(R)-2-[(3S,4S)-4-(2-cyclopropyl-5-methyl-benzoimidazol-1-yl)-3-methoxy-piperidin-1-ylmethyl]-indan-5-yl}-amide], the IC50 reads like this: under setting [1], less than 20 nM; under setting [2], 12 nM.

With `COC1CN(C[C@H]2Cc3ccc(C#N)cc3C2)CC[C@H]1n1c(C(C)(C)O)nc2cc(C)ccc21` (stereo in doubt) [Example 120, (S)-2-{(3R,4R)-4-[2-(1-Hydroxy-1-methyl-ethyl)-5-methyl-benzoimidazol-1-yl]-3-methoxy-piperidin-1-ylmethyl}-indan-5-carbonitrile], the concentration for half-maximal inhibition (IC50) under setting [1] is less than 20 nM.

Regarding `Cc1ccc2c(c1)nc(C(C)(C)O)n2[C@@H]1CCN(C[C@H]2Cc3ccc(Br)cc3C2)CC1O` (stereo in doubt) [Example 122, (3R,4R)-1-((S)-5-Bromo-indan-2-ylmethyl)-4-[2-(1-hydroxy-1-methyl-ethyl)-5-methyl-benzoimidazol-1-yl]-piperidin-3-ol], under setting [1], the IC50 is less than 20 nM.

Consider `Cc1ccc2c(c1)nc(C(C)(C)O)n2[C@@H]1CCN(C[C@H]2Cc3ccc(Br)cc3C2)CC1O` (stereo in doubt) [Example 126, (3R,4R)-1-((S)-5-Bromo-indan-2-ylmethyl)-4-[2-(1-hydroxy-1-methyl-ethyl)-5-methyl-benzoimidazol-1-yl]-piperidin-3-ol], for which the IC50 under setting [2] turned out to be 2 nM.

With `CO[C@@H]1CN(C[C@H]2Cc3ccc(Br)cc3C2)CC[C@H]1n1c(C)nc2cc(C)ccc21` [Example 1, 1-[(3R,4R)-1-((S)-5-Bromo-indan-2-ylmethyl)-3-methoxy-piperidin-4-yl]-2,5-dimethyl-1H-benzoimidazole], the IC50 was less than 20 nM under setting [1] and 20 nM under setting [2].

With `COC(=O)Nc1ccc2c(c1)C[C@H](CN1CCC(n3c(C(C)(C)O)nc4cc(C)ccc43)CC1)C2` [Example 6, ((R)-2-{4-[2-(1-Hydroxy-1-methyl-ethyl)-5-methyl-benzoimidazol-1-yl]-piperidin-1-ylmethyl}-indan-5-yl)-carbamic acid methyl ester], under setting [1], the IC50 was in the range of 20 to 200 nM.

On to `Cc1ccc2c(c1)nc(C)n2[C@@H]1CCN(C[C@@H]2Cc3ccc(NC(=O)C(C)C)cc3C2)C[C@H]1OS(C)(=O)=O` [Example 7, Methanesulfonic acid 4-(2,5-dimethyl-benzoimidazol-1-yl)-1-((R)-5-isobutyrylamino-indan-2-ylmethyl)-piperidin-3-yl ester], for which the concentration for half-maximal inhibition (IC50) under setting [1] is 20 to 200 nM.

Regarding `CCC(=O)Nc1ccc2c(c1)C[C@H](CN1CCC(n3c(C(C)(C)O)nc4cc(C)ccc43)CC1)C2` [Example 8, N-((R)-2-{4-[2-(1-Hydroxy-1-methyl-ethyl)-5-methyl-benzoimidazol-1-yl]-piperidin-1-ylmethyl}-indan-5-yl)-propionamide], the IC50 under setting [1] was in the range of 20 to 200 nM.

`Cc1ccc2c(c1)nc(C)n2[C@@H]1CCN(C[C@H]2Cc3ccc(NC(=O)C(C)C)cc3C2)C[C@H]1O` [Example 9, N-{(S)-2-[(3R,4R)-4-(2,5-Dimethyl-benzoimidazol-1-yl)-3-hydroxy-piperidin-1-ylmethyl]-indan-5-yl}-isobutyramide; trifluoroacetic acid salt]: under setting [1], the IC50 fell in the range of 20 to 200 nM.

With `Cc1cc2nc(C)n(C3CCN(C[C@@H]4Cc5ccc(NC(=O)C(C)C)cc5C4)CC3)c2cn1` [Example 10, N-{(R)-2-[4-(2,6-Dimethyl-imidazo[4,5-c]pyridin-3-yl)-piperidin-1-ylmethyl]-indan-5-yl}-isobutyramide; compound with trifluoro-acetic acid], under setting [1], the IC50 fell in the range of 200 to 5000 nM.

With `Cc1ccc2c(c1)nc(C(C)(C)O)n2C1CCN(CC2Cc3ccncc3C2)CC1` (stereo not shown) [Example 12, 2-{1-[1-(6,7-Dihydro-5H-[2]pyrindin-6-ylmethyl)-piperidin-4-yl]-5-methyl-1H-benzoimidazol-2-yl}-propan-2-ol], the IC50 under setting [1] lay in the range of 20 to 200 nM.

As for `Cc1cc2nc(C(C)(C)O)n(C3CCN(CC4Cc5ccc(F)cc5C4)CC3)c2cc1F` (stereo not shown) [Example 13, 2-{6-Fluoro-1-[1-(5-fluoro-indan-2-ylmethyl)-piperidin-4-yl]-5-methyl-1H-benzoimidazol-2-yl}-propan-2-ol], under setting [1], the IC50 is less than 20 nM.

For the compound `Cc1ccc2c(c1)nc(C(C)(C)O)n2C1CCN(CC2Cc3ccc(Cl)cc3C2)CC1` (stereo not shown) [Example 14, 2-{1-[1-(5-Chloro-indan-2-ylmethyl)-piperidin-4-yl]-5-methyl-1H-benzoimidazol-2-yl}-propan-2-ol], the IC50 under setting [1] was less than 20 nM.

Consider `Cc1ccc2c(c1)nc(C)n2[C@H]1CCN(C[C@@H]2Cc3ccc(NC(=O)C(C)C)cc3C2)C[C@@H]1OCC(C)(C)O` [Example 15, N-{(R)-2-[(3S,4S)-4-(2,5-Dimethyl-benzoimidazol-1-yl)-3-(2-hydroxy-2-methyl-propoxy)-piperidin-1-ylmethyl]-indan-5-yl}-isobutyramide; dihydrochloride], for which, under setting [1], the IC50 is less than 20 nM.

For `CO[C@@H]1CN(C[C@@H]2Cc3ccc(NC(=O)C(C)C)cc3C2)CC[C@H]1n1c(C)nc2cc(C)ccc21` [Example 16, N-{(R)-2-[(3R,4R)-4-(2,5-Dimethyl-benzoimidazol-1-yl)-3-methoxy-piperidin-1-ylmethyl]-indan-5-yl}-isobutyramide; dihydrochloride], the IC50 under setting [1] lay within 20 to 200 nM.

As to `CO[C@H]1CN(C[C@H]2Cc3ccc(Br)cc3C2)CC[C@@H]1n1c(C(C)C)nc2cc(C)ccc21` [Example 17, 1-[(3S,4S)-1-((S)-5-Bromo-indan-2-ylmethyl)-3-methoxy-piperidin-4-yl]-2-isopropyl-5-methyl-1H-benzoimidazole], the IC50 under setting [1] was in the range of 20 to 200 nM.

`CO[C@@H]1CN(C[C@H]2Cc3ccc(Br)cc3C2)CC[C@H]1n1c(C(C)C)nc2cc(C)ccc21` [Example 18, 1-[(3R,4R)-1-((S)-5-Bromo-indan-2-ylmethyl)-3-methoxy-piperidin-4-yl]-2-isopropyl-5-methyl-1H-benzoimidazole]: the IC50 under setting [1] is 20 to 200 nM.

`CO[C@H]1CN(CC2Cc3ccc(Cl)cc3C2)CC[C@@H]1n1c(C)nc2cc(C)ccc21` (stereo partly drawn) [Example 19, 1-[(3S,4S)-1-(5-Chloro-indan-2-ylmethyl)-3-methoxy-piperidin-4-yl]-2,5-dimethyl-1H-benzoimidazole; dihydrochloride]: under setting [1], the IC50 was in the range of 20 to 200 nM.

With `CO[C@@H]1CN(CC2Cc3ccc(F)cc3C2)CC[C@H]1n1c(C)nc2cc(C)ccc21` (stereo partly drawn) [Example 20, 1-[(3R,4R)-1-(5-Fluoro-indan-2-ylmethyl)-3-methoxy-piperidin-4-yl]-2,5-dimethyl-1H-benzoimidazole], under setting [1], the IC50 fell in the range of 20 to 200 nM.
